Test results: PubChem BioAssay AID330 (DTP/NCI, 2004)
Where “and” joins values, the source holds several entries; their conditions need not be identical. Identical values can stand only once. Toxic doses and inconclusive results are not listed.

System: P388 leukemia ip, CD2F1 mice, survival T/C
Test: NCI In Vivo Anticancer Drug Screen. Data for tumor model P388 Leukemia (intraperitoneal) in CD2F1 (CDF1) mice
Details: endpoint: median survival time, higher = longer survival
Procedure, shortened: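 Mice carrying the transplanted tumor received test compound or vehicle. Survival was recorded in each group, and the value is the treated-group measurement divided by that of the vehicle-treated control group.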

[1] = dose: 50.0 mg/kg/injection, schedule: Q01DX005 (ip), vehicle: saline with Tween-80
[2] = dose: 100.0 mg/kg/injection, schedule: Q01DX005 (ip), vehicle: saline with Tween-80
[3] = dose: 60.0 mg/kg/injection, schedule: Q01DX005 (ip), vehicle: saline with Tween-80
[4] = dose: 120.0 mg/kg/injection, schedule: Q01DX005 (ip), vehicle: saline with Tween-80

Which results are given for CCOC(=O)C12CCCC1=NN=C2C1=NN=C2CCCC21C(=O)OCC (stereo unspecified)?
T/C (dose: 60.0 mg/kg/injection, schedule: Q01DX005 (ip), vehicle: saline): 103 % of control; T/C (dose: 120.0 mg/kg/injection, schedule: Q01DX005 (ip), vehicle: saline): 98 % of control; T/C (dose: 240.0 mg/kg/injection, schedule: Q01DX005 (ip), vehicle: saline): 101 % of control

N/C=C1\Cc2ccccc2C1=O was tested. Which T/C (dose: 50.0 mg/kg/injection, schedule: Q01DX009 (ip), vehicle: suspension in saline) did it give?
Its T/C is 95 % of control.

And the T/C (dose: 100.0 mg/kg/injection, schedule: Q01DX009 (ip), vehicle: suspension in saline)?
The T/C was 98 % of control.

And the T/C (dose: 200.0 mg/kg/injection, schedule: Q01DX009 (ip), vehicle: suspension in saline)?
Its T/C is 104 % of control.

How did the T/C (dose: 100.0 mg/kg/injection, schedule: Q01DX009 (ip), vehicle: saline with Tween-80) turn out when COc1ccc(OC(=O)CCCl)cc1 was run?
The T/C was 113 % of control.

And the T/C (dose: 200.0 mg/kg/injection, schedule: Q01DX009 (ip), vehicle: saline with Tween-80)?
The T/C was 108 % of control.

And the T/C (dose: 400.0 mg/kg/injection, schedule: Q01DX009 (ip), vehicle: saline with Tween-80)?
Its T/C is 104 % of control.

What does the source list for CCOC(=O)CN=C(c1ccccc1)c1ccccc1?
T/C (dose: 6.25 mg/kg/injection, schedule: Q01DX009 (ip), vehicle: saline): 105 % of control; T/C (dose: 12.5 mg/kg/injection, schedule: Q01DX009 (ip), vehicle: saline): 105 % of control; T/C (dose: 25.0 mg/kg/injection, schedule: Q01DX009 (ip), vehicle: saline): 105 % of control; T/C (dose: 100.0 mg/kg/injection, schedule: Q01DX009 (ip), vehicle: saline): 89 % of control

What does the source list for C#CCC(C(C)=O)C(C)=O.[C-]#[O+].[C-]#[O+].[C-]#[O+].[C-]#[O+].[C-]#[O+].[C-]#[O+].[Co].[Co]?
T/C (dose: 12.5 mg/kg/injection, schedule: Q01DX005 (ip), vehicle: Klucel (hydroxypropylcellulose) (HPC)): 108 % of control; T/C (dose: 25.0 mg/kg/injection, schedule: Q01DX005 (ip), vehicle: Klucel (hydroxypropylcellulose) (HPC)): 102 % of control; T/C (dose: 50.0 mg/kg/injection, schedule: Q01DX005 (ip), vehicle: Klucel (hydroxypropylcellulose) (HPC)): 108 % of control and 95 % of control

How did the T/C (dose: 3.13 mg/kg/injection, schedule: Q01DX009 (ip), vehicle: other) turn out when COc1c2ccccc2c(OC)c2c(OC(C)=O)c3c(c(OC(C)=O)c12)CC=CC3 was run?
Its T/C is 96 % of control.

And the T/C (dose: 6.25 mg/kg/injection, schedule: Q01DX009 (ip), vehicle: other)?
The T/C was 104 % of control.

And the T/C (dose: 25.0 mg/kg/injection, schedule: Q01DX009 (ip), vehicle: other)?
Its T/C is 93 % of control.

And the T/C (dose: 50.0 mg/kg/injection, schedule: Q01DX009 (ip), vehicle: other)?
The T/C was 96 % of control.

Which results are given for COc1cc2c(cc1C(C)(C)c1ccccc1)OCO2?
T/C [1]: 99 % of control; T/C [2]: 100 % of control; T/C (dose: 200.0 mg/kg/injection, schedule: Q01DX005 (ip), vehicle: saline with Tween-80): 101 % of control

How did the T/C (dose: 100.0 mg/kg/injection, schedule: Q01DX001 (ip), vehicle: Klucel (hydroxypropylcellulose) (HPC)) turn out when COc1ccc(C(C)(O)C2CC2)cc1 (stereo unspecified) was run?
Its T/C is 107 % of control.

What about the T/C (dose: 200.0 mg/kg/injection, schedule: Q01DX001 (ip), vehicle: Klucel (hydroxypropylcellulose) (HPC)) of the same compound?
The T/C was 103 % of control.

What about the T/C (dose: 400.0 mg/kg/injection, schedule: Q01DX001 (ip), vehicle: Klucel (hydroxypropylcellulose) (HPC)) of the same compound?
Its T/C is 103 % of control.

Which results are given for Cn1c(=S)sc2nc3ccccc3n2c1=S?
T/C (dose: 30.0 mg/kg/injection, schedule: Q01DX005 (ip), vehicle: saline with Tween-80): 117 % of control; T/C [3]: 121 % of control; T/C [4]: 108 % of control

For C[Si](C)(C)c1ccccn1, which T/C [3] is on record?
The T/C was 108 % of control.

What about the T/C [4] of the same compound?
The T/C was 103 % of control.

What about the T/C (dose: 240.0 mg/kg/injection, schedule: Q01DX005 (ip), vehicle: saline with Tween-80) of the same compound?
The T/C was 113 % of control.

Which results are given for CCCCCC/C(CC(SCC)c1ccccc1Cl)=N\NC(N)=O (stereo unspecified)?
T/C (dose: 60.0 mg/kg/injection, schedule: Q01DX005 (ip), vehicle: saline + Tween-80 + alcohol): 105 % of control; T/C (dose: 120.0 mg/kg/injection, schedule: Q01DX005 (ip), vehicle: saline + Tween-80 + alcohol): 97 % of control; T/C (dose: 240.0 mg/kg/injection, schedule: Q01DX005 (ip), vehicle: saline + Tween-80 + alcohol): 100 % of control

With O=C1Cc2ccccc2C(=O)N1CCN1CCOCC1 as the compound, how does the T/C (dose: 100.0 mg/kg/injection, schedule: Q01DX001 (ip), vehicle: saline) read?
The T/C was 101 % of control.

And the T/C (dose: 200.0 mg/kg/injection, schedule: Q01DX001 (ip), vehicle: saline)?
Its T/C is 108 % of control.

For CC12Cc3cnoc3C=C1CCC1C2CCC2(C)C1CCC2(C)O (stereo unspecified), which T/C [1] is on record?
The T/C was 93 % of control.

What about the T/C [2] of the same compound?
The T/C was 86 % of control.

Clc1cc2[nH]ccc2c(Cl)n1 was tested. Which T/C (dose: 50.0 mg/kg/injection, schedule: Q01DX001 (ip), vehicle: saline with Tween-80) did it give?
Its T/C is 90 % of control.

And the T/C (dose: 100.0 mg/kg/injection, schedule: Q01DX001 (ip), vehicle: saline with Tween-80)?
Its T/C is 92 % of control.
